Measurements from patent US20140051679A1, “KINASE INHIBITORS AND METHOD OF TREATING CANCER WITH SAME” (UNIVERISTY HEALTH NETWORKS, priority 2011, published 2014).

Tests used:
human TTK = biological target: T1, human TTK (Homo sapiens, UniProt P33981); experiment: TTK inhibition assay (indirect ELISA); type: biochemical; settings: GST-TTK 0.68 nM, 16 μM ATP; read-out: IC50 Ranges TTK
T1 construct: amino terminal GST fusion of full length human TTK; purchased Invitrogen
T1 sequence (P33981 1-857): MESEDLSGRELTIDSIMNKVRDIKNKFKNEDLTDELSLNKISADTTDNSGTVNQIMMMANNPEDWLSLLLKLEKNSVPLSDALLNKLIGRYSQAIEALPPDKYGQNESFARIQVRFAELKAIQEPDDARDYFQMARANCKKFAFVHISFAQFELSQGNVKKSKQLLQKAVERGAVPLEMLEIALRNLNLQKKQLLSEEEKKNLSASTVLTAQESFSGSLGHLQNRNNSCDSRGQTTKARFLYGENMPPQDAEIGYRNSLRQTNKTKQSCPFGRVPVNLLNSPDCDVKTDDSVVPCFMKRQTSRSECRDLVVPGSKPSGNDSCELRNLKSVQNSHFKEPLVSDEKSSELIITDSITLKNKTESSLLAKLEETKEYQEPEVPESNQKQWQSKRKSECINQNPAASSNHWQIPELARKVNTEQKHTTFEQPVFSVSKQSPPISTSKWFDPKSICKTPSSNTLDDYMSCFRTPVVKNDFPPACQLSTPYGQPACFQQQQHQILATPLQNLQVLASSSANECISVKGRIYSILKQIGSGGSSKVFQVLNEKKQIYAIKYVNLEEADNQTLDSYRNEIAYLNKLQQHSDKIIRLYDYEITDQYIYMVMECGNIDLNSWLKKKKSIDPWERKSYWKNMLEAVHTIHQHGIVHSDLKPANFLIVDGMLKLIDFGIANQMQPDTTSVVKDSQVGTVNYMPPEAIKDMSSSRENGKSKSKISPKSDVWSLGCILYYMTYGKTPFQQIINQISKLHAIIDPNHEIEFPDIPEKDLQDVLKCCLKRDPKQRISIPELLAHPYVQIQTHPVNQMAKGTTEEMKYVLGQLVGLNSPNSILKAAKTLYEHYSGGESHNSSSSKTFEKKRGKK

[1] = system: PA-1 ovarian cancer cells; experiment: Cell growth inhibition, Sulforhodamine B assay, PA-1; type: cell-based; settings: 120 h, 5 days culture, SRB assay, read-out: Cell Line GI50 Range PA-1
Description: (§1) Breast cancer cells (MDA-MB-231, MDA-MB-468), colon cancer cells (HCT116, HT29) and ovarian cancer cells (PA-1, OVCAR-3) were seeded (1000 to 4000 in 80 μl per well depending on the cell growth rate) into 96 well plates 24 hours before compound overlay. Compounds were prepared as 10 mM stock solutions in 100% DMSO which were diluted with DMEM (Dulbecco's Modified Eagle's Medium) cell growth Medium (Invitrogen, Burlington, ON, Canada) containing 10% FBS (Fetal Bovine Serum) to concentrations ranging from 50 nM to 250 μM. Aliquots (20 μl) from each concentration were overlaid to 80 μl of the pre-seeded cells in the 96 well plates to make final concentrations of 10 nM to 50 μM. The cells were cultured for 5 days before the Sulforhodamine B assay (SRB) was performed to determine the compound's cell growth inhibition activity.
(§2) Sulforhodamine B (purchased from Sigma, Oakville, ON, Canada) is a water-soluble dye that binds to the basic amino acids of the cellular proteins. Thus, colorimetric measurement of the bound dye provides an estimate of the total protein mass that is related to the cell number. the cells are fixed in situ by gently aspirating off the culture media and adding 50 μl ice cold 10% Trichloroacetic Acid (TCA) per well and incubate at 4° C. for 30-60 min, The plates are washed with water five times and allowed to air dry for 5 min. Addition of 50 μl 0.4% (w/v) SRB solution in 1% (v/v) acetic acid to each well and incubatation for 30 min at RT completes the staining reaction. Following staining, plates are washed four times with 1% acetic acid to remove unbound dye and then allowed to air dry for 5 min. The stain is solubilized with 100 μl of 10 mM Tris pH 10.5 per well. Absorbance is read at 570 nm.
(§3) The percentage (%) of relative growth inhibition was calculated by comparing to DMSO treated only cells (100%). […] The GI50 was calculated using GraphPad PRISM software (GraphPad Software, Inc., San Diego, Calif., USA).

[2] = system: MDA-MB-468 breast cancer cells; experiment: Cell growth inhibition, Sulforhodamine B assay, MDA-MB-468; type: cell-based; settings: Homo sapiens, 120 h, 5 days culture, SRB assay, read-out: Cell Line GI50 Range MDA-MB-468
HT29 colon cancer cells = experiment: Cell growth inhibition, Sulforhodamine B assay, HT29; type: cell-based; settings: Homo sapiens, HT-29, 120 h, 5 days culture, SRB assay, read-out: Cell Line GI50 Range HT29
Description: as §1, §2, §3

human PLK4 = biological target: T2, human PLK4 (Homo sapiens, UniProt O00444); experiment: PLK4 inhibition assay (indirect ELISA); type: biochemical; settings: GST-PLK4 4 nM, 15 μM ATP; read-out: IC50 Ranges PLK4
T2 construct: amino terminal GST fusion of residues 1-391 of human PLK4; made in house; host or cells: E. coli
T2 sequence (O00444 1-391): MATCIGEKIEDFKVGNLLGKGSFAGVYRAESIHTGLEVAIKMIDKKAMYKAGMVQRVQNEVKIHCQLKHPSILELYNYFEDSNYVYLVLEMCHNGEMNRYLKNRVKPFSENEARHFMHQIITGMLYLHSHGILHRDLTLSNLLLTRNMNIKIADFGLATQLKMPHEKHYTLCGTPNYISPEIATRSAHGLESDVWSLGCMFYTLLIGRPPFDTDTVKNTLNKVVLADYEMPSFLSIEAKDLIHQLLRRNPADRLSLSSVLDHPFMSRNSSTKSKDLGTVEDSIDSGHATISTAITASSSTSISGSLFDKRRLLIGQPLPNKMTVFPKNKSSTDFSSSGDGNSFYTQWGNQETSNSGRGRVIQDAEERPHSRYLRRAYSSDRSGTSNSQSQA
Method in brief: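 Dephosphorylated GST-tagged human PLK4 (residues 1-391, E. coli), 4 nM, preincubated 15 min with compound, then reacted 30 min with 15 μM ATP on MBP-coated plates (50 mM HEPES pH 7.5, 10 mM MgCl2, 0.01% Brij 35). Phospho-MBP detected by antibody ELISA at 450 nm. Tested at 10 μM or 10-point titrations; IC50 from 4-parameter logistic fit.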

[3] = system: HCT116 colon cancer cells; experiment: Cell growth inhibition, Sulforhodamine B assay, HCT116; type: cell-based; settings: Homo sapiens, HCT-116, 120 h, 5 days culture, SRB assay, read-out: Cell Line GI50 Range HCT116
Aurora B = biological target: T3, Aurora B (Homo sapiens, UniProt Q96GD4); experiment: Aurora B inhibition assay (Z-Lyte); type: biochemical; settings: 28 nM Aurora B, 128 μM ATP; read-out: IC50 Ranges Aurora B
T3 construct: purchased Invitrogen PV3970
T3 sequence (Q96GD4 whole entry): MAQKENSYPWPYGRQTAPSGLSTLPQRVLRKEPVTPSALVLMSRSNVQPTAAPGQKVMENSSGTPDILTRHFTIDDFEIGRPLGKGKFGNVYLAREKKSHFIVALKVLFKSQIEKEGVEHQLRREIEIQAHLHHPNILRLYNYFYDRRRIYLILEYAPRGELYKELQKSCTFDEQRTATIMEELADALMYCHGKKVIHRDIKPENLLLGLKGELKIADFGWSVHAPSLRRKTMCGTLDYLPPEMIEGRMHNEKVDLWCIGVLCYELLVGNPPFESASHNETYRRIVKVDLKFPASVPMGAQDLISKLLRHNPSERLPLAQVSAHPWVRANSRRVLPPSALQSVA
Description: Aurora B inhibition was determined using the Z-Lyte assay kit from Invitrogen. The assay was performed using the recommended manufacturer's instructions with 128 μM ATP and 28 nM Aurora B (Invitrogen cat #PV3970). The % inhibition values were determined according to the manufacturer's directions and IC50 values were obtained using a non-linear 4 point logistic curve fit (XLfit4, IDBS)

O=C(NC(c1ccccc1)C1CC1)c1ccc2[nH]nc(-c3ccc(N[C@H]4CC[C@H](O)CC4)cc3)c2c1 (single isomer, unassigned) [Example A106, rel-N-(cyclopropyl(phenyl)methyl)-3-(4-(((1r,4r)-4-hydroxycyclohexyl)amino)phenyl)-1H-indazole-5-carboxamide]
≤ 5 µM: IC50 (human TTK) | GI50 [1] | GI50 [2] | GI50 (HT29 colon cancer cells) | IC50 (human PLK4) | GI50 [3] | IC50 (Aurora B)

O=C(Nc1ccc2[nH]nc(-c3ccc(N4CCOCC4)cc3)c2c1)C(c1cccs1)N1CCCC1 (centres unmarked) [Example A82, N-(3-(4-morpholinophenyl)-1H-indazol-5-yl)-2-(pyrrolidin-1-yl)-2-(thiophen-2-yl)acetamide]
≤ 5 µM: IC50 (human TTK) | GI50 [1] | GI50 [2] | GI50 (HT29 colon cancer cells) | IC50 (human PLK4) | GI50 [3] | IC50 (Aurora B)

O=C(Nc1ccc2[nH]nc(-c3ccc(N4CCC(O)CC4)cc3)c2c1)C(c1ccsc1)N1CCCCC1 (centres unmarked) [Example A83, N-(3-(4-(4-hydroxypiperidin-1-yl)phenyl)-1H-indazol-5-yl)-2-(piperidin-1-yl)-2-(thiophen-3-yl)acetamide]
≤ 5 µM: IC50 (human TTK) | GI50 [1] | GI50 [2] | GI50 (HT29 colon cancer cells) | IC50 (human PLK4) | GI50 [3] | IC50 (Aurora B)

O=C(NC(c1ccccc1)C1CC1)c1ccc2[nH]nc(-c3ccc(N4CCC(O)CC4)cc3)c2c1 (centres unmarked) [Example A84, N-(cyclopropyl(phenyl)methyl)-3-(4-(4-hydroxypiperidin-1-yl)phenyl)-1H-indazole-5-carboxamide]
≤ 5 µM: IC50 (human TTK) | GI50 [1] | GI50 [2] | GI50 (HT29 colon cancer cells) | IC50 (human PLK4) | GI50 [3] | IC50 (Aurora B)

COC(C(=O)Nc1ccc2[nH]nc(-c3ccc(N4CCC(O)CC4)cc3)c2c1)c1ccsc1 (centres unmarked) [Example A87, N-(3-(4-(4-hydroxypiperidin-1-yl)phenyl)-1H-indazol-5-yl)-2-methoxy-2-(thiophen-3-yl)acetamide]
≤ 5 µM: IC50 (human TTK) | GI50 [1] | GI50 [2] | GI50 (HT29 colon cancer cells) | IC50 (human PLK4) | GI50 [3]

O=C(Nc1ccc2[nH]nc(-c3ccc(N4CCC(O)CC4)cc3)c2c1)C(c1cccs1)N1CCCC1 (centres unmarked) [Example A88, N-(3-(4-(4-hydroxypiperidin-1-yl)phenyl)-1H-indazol-5-yl)-2-(pyrrolidin-1-yl)-2-(thiophen-2-yl)acetamide]
≤ 5 µM: IC50 (human TTK) | GI50 [1] | GI50 [2] | GI50 (HT29 colon cancer cells) | IC50 (human PLK4) | GI50 [3] | IC50 (Aurora B)

O=C(NC(c1ccccc1)C1CC1)c1ccc2[nH]nc(-c3ccc(OC4CCN(CCF)CC4)cc3)c2c1 (centres unmarked) [Example A122, N-(cyclopropyl(phenyl)methyl)-3-(4-((1-(2-fluoroethyl)piperidin-4-yl)oxy)phenyl)-1H-indazole-5-carboxamide]
≤ 5 µM: IC50 (human TTK) | GI50 [1] | GI50 [2] | GI50 (HT29 colon cancer cells) | IC50 (human PLK4) | GI50 [3]
